{
  "source": "patent US20150202179A1",
  "about": "“FATTY ACID DERIVATIVES FOR USE IN A METHOD OF TREATING DEPRESSION AND ASSOCIATED CONDITIONS” (YISSUM RESEARCH DEVELOPMENT COMPANY OF THE HEBREW …, priority 2012, published 2015)",
  "key": {"serotonin (5HT) levels": {"test_system": "serotonin (5HT) levels", "assay": "Serotonin (5HT) determination in brain tissue by HPLC with electrochemical detection", "format": "in vivo, mice", "details": "for 5HT: ng/g wet tissue +/− SEM; for 5HT levels in the hippocampus vs. control / 5HT levels in the hypothalamus vs. control: result in words", "procedure": "(§1) Solution of DHBA as internal standard in the concentration of: 1 μg/ml in 0.1M perchloric acid, were prepared. Standard solutions of NE and 5HT in the concentration of 1-0.1 μg/ml in 0.1M perchloric acid were prepared.\n(§2) Tissues (hypothalamus and hippocampus) obtained from 6-8 mice were dissected on ice surface and kept at −80 C. Hypothalamus (HT) or hippocampus (HC) from 1 mice were weighted (weight of HT −10-20 mg, HC 30-40 mg) and placed in eppendorf micro-centrifuge tube, 1.5 ml. To each tube was added 120-160 μl of ice cold solution of Perchloric acid and DHBA, homogenized in ice bath on Sonics vibra cell, 3×20 sec., 0.4 watts and centrifuged at 14,000×g at 4° C. 10 min. Supernatant gained was stored in ice before analysis.\n(§3) The HPLC system consisted of Jasco PU-980 pump, Jasco AS-950-10 autosampler cooled at 4° C., H3 ODS-125A 3 μm 125 mm×4.6 mm i.d. analytical column (Hichrom, UK) were used. Electrochemical detector Coulochem ESA 5100A with analytical cell model 5011 was used for control detector voltage and record the current. Working electrode was set at potential +350 mV. Control and data collection/processing were handled through Borwin chromatography software.\n(§4) The mobile phase composition: A stock buffer was prepared as follows: 20 mM sodium dihydrogenorthophosphate, EDTA 3 mg/l, 1-heptanesulfonic acid 1 g/l were dissolved in 1 liter deionized distilled water and buffered to pH 3.7 using concentrated phosphoric acid. To prepare the mobile phase buffer was mixed with acetonitrile (Baker HPLC analyzed) in the ratio 85:15 (v/v), filtered through a 0.2 μm membrane filter and degassed under vacuum after mixing. Mobile phase flow rate 1 ml/min. Injection volume 20 μl, retention time for DHBA 4.2 min., norepinephrine—3.1 min., 5HT 8.6 min. For calibration curve 1 ug/ml solution of DHBA together with 1.0-0.1 μg/ml solutions of 5HT and NE were used. The ratio between 5HT or NE and DHBA used to calculate the level of 5HT and NE in the sample. Date are given in ng/g wet tissue +/−SEM."}, "[1]": {"test_system": "Norepinephrine (NE) levels", "assay": "Norepinephrine (NE) determination in brain tissue by HPLC with electrochemical detection", "format": "in vivo, mice", "details": "for NE: ng/g wet tissue +/− SEM; for norepinephrine levels in the hippocampus vs. control / norepinephrine levels in the hypothalamus vs. control: result in words", "procedure": "as §1, §2, §3, §4"}, "[2]": {"assay": "Weight and food consumption in Sabra mice", "format": "in vivo", "procedure": "140 Female Sabra Mice 12 weeks old are divided to […] 10 mice in each group with equal weight. Mice are administered I.P. with either saline or 1 mg/kg Fluoxetine (PROZAC), compound 1, 4, 5, 7, 10, 11, 12, 13, 14, 15, 19, 26 for a 4 weeks period. On day 30 and on, mice were tested by the following behavioral tests. […]"}, "[3]": {"assay": "Weight and food consumption in OB/OB mice which lack the leptin gene", "format": "in vivo", "text": "Thus the compounds of the invention can be used to treat conditions that are mediated by the enhancement of leptin levels. In obesity there is high leptin level however the leptin receptors are not responding. High CNS leptin level has anti-depression effect however, if there is tolerance there is no anti depression effect."}, "[4]": {"assay": "Tail Suspension Test, separated BALB/c mice (model for depression)", "format": "in vivo", "details": "compounds 1 mg/kg i.p., imipramine 10 mg/kg i.p.; day 7; in relation to vehicle", "text": "Tail suspension test (TST): Animals are suspended upside down by adhesive tape placed 1 cm from the tail tip. The elevation of the animal is 50 cm from the nearest surface. […] Statistical analysis compares the magnitude of immobility (in seconds) between different treatment groups. In this test, antidepressants characteristically cause an increase of the time fraction spent by the animal as active at the expense of the inactivity period.\n50, 2 month old female BALB/c mice were separated (each mouse in a different cage) for 9 days period (a model for depression). On days 7, 8, 9, 34-40 mice were administered with either vehicle or compounds X, 12 and 15 (1 mg/kg i.p.) or imipramine 10 mg/kg (anti-depressant) i.p. and tested in the Tail suspension test on day 7 of the experiment (10 mice per group)."}, "[5]": {"assay": "Forced Swim Test (FST), separated BALB/c mice", "format": "in vivo", "details": "compounds 1 mg/kg i.p., imipramine 10 mg/kg i.p.; day 8; in relation to vehicle", "procedure": "Forced swim test (FST): The animal is placed in a circular, transparent, plexiglass tank measuring 21 cm in diameter and 46 cm in height containing water 15 cm high, maintained at 23-25° C. […] Also measured is the latency period, the time elapsing, for each animal from immersion in the water tank until the first occurrence of immobility. Since climbing activity is minimal in mice, […].\n(§5) 50, 2 month old female BALB/c mice, 10 mice per group, on ad libitum diet were separated (each mouse in a different cage) for 9 days (Separation Stress, a model for depression). On the 7, 8, 9, 34-40 days mice were administered with either vehicle or compounds x, 12 and 15 (1 mg/kg i.p.) or imipramine 10 mg/kg (antidepressant) i.p. and tested in the forced swim test (FST) on day 8."}, "[6]": {"assay": "Novelty Suppressed Feeding Test (NSFT), separated BALB/c mice", "format": "in vivo", "details": "compounds 1 mg/kg i.p., day 9", "procedure": "(§6) Novelty suppressed feeding test (NSFT): After the last treatment injection, all food is removed from the cage for 24 hours (water available ad libitum). At the end of this time, the animal is introduced into a 50×50×20 (height) cm wooden arena the floor of which is marked with equal rectangles of 10×10 cm. A pellet of food is placed on an elevated surface in the center of the arena. The time elapsing from the introduction of the animal into the arena until it commences eating (latency to feed) is recorded. The animal is removed from the arena immediately after it begins to eat or after not doing so for 5 min. During the test, the number of lines crossed by the animal is counted as a measure of motor activity, and calibrated for 5 min if the animal started eating before that. After the test, the animal is immediately transferred to its home cage and left to consume a previously weighed amount of food for 10 minutes. On completion of this period the food is weighed again to calculate the home cage food consumption.\nas §5, with “34-40,” for “34-40”, “Novel Suppressed Feeding Test” for “the forced swim test (FST)”, “9.” for “8.”\nas §6, with “FIGS. 9A-9C show the results of the NSFT. […]” for “Novelty suppressed feeding test (NSFT):”, “hours.” for “hours (water available ad libitum).”, “into” for “into a 50×50×20 (height) cm wooden arena”, “open field test.” for “floor of which is marked with equal rectangles of 10×10 cm.”, “to find” for “elapsing from”, “food was” for “introduction of the animal into the arena until it commences eating (latency to feed) is”"}, "[7]": {"assay": "Eight Arm Maze Test, separated BALB/c mice", "format": "in vivo", "details": "compounds 1 mg/kg i.p., imipramine 10 mg/kg i.p.; day 34-38; in relation to vehicle (p<0.05)", "procedure": "2 month old female BALB/c mice 10 mice per group were separated (each mouse in a different cage) for 9 days (a model for depression). On days 7, 8, 9, 34-40 days mice were administered with either vehicle or compounds X, 12 and 15 (1 mg/kg i.p.) or imipramine 10 mg/kg (anti-depressant) i.p. and tested in the Eight Arm Maze from day 34-38."}, "[8]": {"assay": "Neurological score measured by the NSS method", "format": "in vivo, BALB/c mice", "details": "1 mg/kg i.p."}},
  "note": "Entries after “also recorded” stand apart in the source; their conditions may differ.",
  "data": [
    {"smiles": "CCCCCCCC/C=C\\CCCCCCCCNC(=O)N[C@H](CO)C(C)C", "note": "[Compound 15, Oleyl-amine-carbonyl-L-valinol]", "values": [
      {"measurement": "5HT", "setting": "serotonin (5HT) levels; Hippocampus", "result": "396.7 ± 21", "unit": "ng/g"},
      {"measurement": "5HT", "setting": "serotonin (5HT) levels; Hypothalamus", "result": "853 ± 78.3", "unit": "ng/g"},
      {"measurement": "5HT levels in the hippocampus vs. control", "setting": "serotonin (5HT) levels", "result": "increased significantly"},
      {"measurement": "5HT levels in the hippocampus vs. control", "setting": "serotonin (5HT) levels; listed as compound 15", "result": "significantly enhanced"},
      {"measurement": "5HT levels in the hypothalamus vs. control", "setting": "serotonin (5HT) levels", "result": "increased significantly"},
      {"measurement": "5HT levels in the hypothalamus vs. control", "setting": "serotonin (5HT) levels; listed as compound 15", "result": "significantly enhanced"},
      {"measurement": "NE", "setting": "[1]; Hippocampus", "result": "373.7 ± 48.1", "unit": "ng/g"},
      {"measurement": "NE", "setting": "[1]; Hypothalamus", "result": "1234.8 ± 59.8", "unit": "ng/g"},
      {"measurement": "norepinephrine levels in the hippocampus vs. control", "setting": "[1]", "result": "increase significantly"},
      {"measurement": "norepinephrine levels in the hippocampus vs. control", "setting": "[1]; listed as compound 15", "result": "significantly enhanced"},
      {"measurement": "norepinephrine levels in the hypothalamus vs. control", "setting": "[1]", "result": "increased significantly"},
      {"measurement": "norepinephrine levels in the hypothalamus vs. control", "setting": "[1]; listed as compound 15", "result": "significantly enhanced"},
      {"measurement": "food consumption", "setting": "[2]", "result": "significant decrease"},
      {"measurement": "weight (weight loss)", "setting": "[2]", "result": "significant weight loss; also recorded: significant decrease"},
      {"measurement": "food consumption", "setting": "[3]", "result": "did not change"},
      {"measurement": "weight (weight loss)", "setting": "[3]", "result": "do not produce weight loss; also recorded: did not change"},
      {"measurement": "activity in Tail Suspension Test", "setting": "[4]", "result": "significantly enhanced activity"},
      {"measurement": "swimming activity in forced swim test", "setting": "[5]", "result": "significantly enhanced swimming activity"},
      {"measurement": "food intake in NSFT", "setting": "[6]; in relation to vehicle and more than imipramine 10 mg/kg", "result": "significantly enhanced food intake"},
      {"measurement": "motor activity in NSFT", "setting": "[6]; resembled imipramine 10 mg/kg", "result": "enhanced motor activity"},
      {"measurement": "performance in the Eight Arm Maze", "setting": "[7]", "result": "significantly improved performance"},
      {"measurement": "neurological score (NSS method)", "setting": "[8]", "result": "did not affect neurological score"}
    ]}
  ]
}
